Where a SMILES comes first, the peptide text is derived from it. Where no end group is shown, it is not given here. The star is where a group is joined. 5FAM = O=C1OC2(c3ccc(O)cc3Oc3cc(O)ccc32)c2ccc(C(=O)*)cc21
What follows are compounds tested against MroD (Micromonospora rosaria, UniProt A0A136PPB2) (assay: not given). Conditions: read-out: IC50 MroD; SEM.
Chain of MroD (A0A136PPB2 entry or part of it): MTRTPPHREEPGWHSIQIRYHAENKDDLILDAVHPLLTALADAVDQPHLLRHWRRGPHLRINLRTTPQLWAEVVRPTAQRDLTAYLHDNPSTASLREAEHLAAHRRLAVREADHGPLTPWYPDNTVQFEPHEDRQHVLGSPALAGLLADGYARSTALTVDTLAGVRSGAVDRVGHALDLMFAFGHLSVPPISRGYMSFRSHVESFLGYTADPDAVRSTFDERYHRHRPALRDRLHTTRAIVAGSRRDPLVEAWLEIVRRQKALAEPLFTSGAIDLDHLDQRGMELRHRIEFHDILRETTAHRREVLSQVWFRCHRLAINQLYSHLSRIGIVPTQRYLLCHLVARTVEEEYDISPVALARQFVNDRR

Which IC50 does the source give for `CC[C@H](C)[C@H](NC(=O)[C@H](CC(=O)O)NC(=O)[C@H](CC(C)C)NC(=O)[C@H](CC(=O)O)NC(=O)[C@@H](N)CO)C(=O)N[C@H](C(=O)N[C@@H](CC(=O)O)C(=O)N[C@@H](CC(C)C)C(=O)N[C@@H](CC(=O)O)C(=O)N[C@@H](CC(C)C)C(=O)N[C@@H](C)C(=O)N[C@H](C(=O)N[C@@H](CC(=O)O)C(=O)N[C@@H](CCC(=O)O)C(=O)N[C@@H](CCC(=O)O)C(=O)N[C@@H](CC(C)C)C(=O)N[C@@H](C)C(=O)N[C@@H](C)C(=O)N[C@@H](CC(C)C)C(=O)N[C@@H](CO)C(=O)N[C@H](C(=O)NCC(=O)NCC(=O)N[C@@H](CC(C)C)C(=O)NCC(=O)N[C@@H](CC(N)=O)C(=O)N[C@H](C(=O)N[C@@H](CCC(=O)O)C(=O)N[C@H](C(=O)NCC(=O)N[C@@H](C)C(=O)N[C@@H](CO)C(=O)NCC(=O)N[C@@H](Cc1c[nH]c2ccccc12)C(=O)N[C@@H](CC(C)C)C(=O)NCC(=O)N[C@@H](CO)C(=O)N[C@@H](Cc1c[nH]c2ccccc12)C(=O)N[C@H](C(=O)N[C@H](C(=O)OC)[C@@H](C)CC)C(C)C)C(C)C)[C@@H](C)O)C(C)C)C(C)C)C(C)C` [Δ12MroA1-COOMe] (H-SDLDIVDLDLAVDEELAALSVGGLGNTEVGASGWLGSWVI-OMe) here?
The IC50 was 0.4 ± 0.06 µM.

“SDLDIVDLDLAVDEELAALSVGGLGNTEVGA [Δ12MroA1 leader]” was tested. Which IC50 did it give?
Its IC50 is 16 ± 4.4 µM.

For “SDLDIVDLDLAVDEELAALSVGGLGNTEVGASGWLGSGVI [Δ12MroA1-W7G]”, which IC50 is on record?
The IC50 was 2.4 ± 0.3 µM.

“SDLDIVDLDLAVDEELAALSVGGLGNTEVGASGWLGSWGI [Δ12MroA1-V8G]” was tested. Which IC50 did it give?
Its IC50 is 1.7 ± 0.4 µM.

Which IC50 does the source give for “SDLDIVDLDLAVDEELAALSVGGLGNTEVGASGWLGSWVG [Δ12MroA1-I9G]” here?
The IC50 was 0.91 ± 0.09 µM.

Which IC50 does the source give for “SDLDIVDLDLAVDEELAALSVGGLGNTEVGASGWLGSWVI [Δ12MroA1]” here?
Its IC50 is 0.09 ± 0.02 µM.

These compounds were tested on MroB/C (assay: MroB/C dehydration (Dha formation) of in vitro translated MroA2 variants, MALDI-TOF-MS). Conditions: Table S6, MroA2 multi-site variants, 2 μM MBP-MroB, 2 μM MBP-MroC, 1 h room temperature.
Assay type: biochemical, Micromonospora rosaria
Experimental: in 2 mM NaOAc pH 5.2, and the concentration was assayed using 260 nm absorbance. This tRNA Glu (CUC) was t he n used in the MroBC-catalyzed dehydration assay.
In vitro translation and enzymati c as s ays (dehydration and cyclization). In a 0.65 mL protein low-binding Eppendorf tube placed on ice, 0.75 μL of purified mroA variant template DNA was mixed with 0.75 μL of Solution B and 1 μL of Solution A of PURExpress I n vi t ro Protein Synthesis Kit (E6800L) purchased from NEB (total volume of reaction is 2.5 μL ). The translation reactions were performed at 37°C for 1 hon an aluminum block.
For a full MroBCD substrate scope investigation, a total translation volume for each variant of 7.5 μL was performed.
1.5 μL of 90 mM i odoacet am i de (IAA) was added to quench d ithiothreitol (DTT) in the translation reaction mixture, a thiol -based nucleophile that can react with electrophilic dehydroalanines generated from MroBC-cat al yzed dehydration assays. […]
In the 6 μL part, 10.2 μL of the enzyme mix containing enzymes and cofactors was added along with 1.8 μ L 90 mM ATP (pH 7.5) ,which wasused to initiate the reaction . The enzyme mix was made by adding these components in the following order: HEPES pH 7.5, MgCl2, glutamate, T. bispora tRNAGl u(CUC), thermostable inorganic pyrophosphatase (TIPP), TEV (L56V/S135G/S219V) (w/w ratio with a total amount of MBP-tagged protein = 1: 10), MBP-MroB, MBP-MroC, and T. bispora GluRS. The enzyme mix was incubated 25 min at room temper at ure before adding to the translation product to facilitate in situ TEV -catalyzed cleavage of MBP from MBP -MroB and MBP - MroC. The enzymatic reaction proceeded for 1 h at room temperature. Overal l , the concentration of components in the 18 μL reaction mix is as follows : 50 mM HEPES pH 7.5, 5 mM MgCl2, gl utamate 1 mM, 3 μM T. bi s por a tRNAGlu, 1 μM T. bispora GluRS, 2 μM MBP-MroB, 2 μM MBP-MroC, […], 0.027 U/μL TIPP, and 5 mM IAA. In addition, the […] was incubated with the same buffer lacking enzymes and tRNA as a translation control.
After incubation, the enzyme reaction (18 μ L) was split into two equal parts. One part was treated with MBP-MroD such that the final concentration of MBP-MroD is 3 μM, and the other part was added the same volume but with buffer lacking MBP-MroD (50 mM HEPES, 300 mM NaCl, 2.5% glycerol, 0.5 mM TCEP).The reaction further proceeded for 1.5 h at room temperature. All reaction mixture was then desalted with solid- phase extraction using Ziptip with 0.6 μL C18 resin (EMD Milli por e ) and crystallized on an MTP384 steel target plate using either sa t ur at e d sina pi c ac i d or 50 mg/mL Super DHB [ dissolved in 60% acetonitrile and 0.1% trifluoroacetic acid (TFA )] as the matrix. T he crystallized spots were then analyzed using MALDI-TOF-MS (Bruker Ultraflex). The external standard for MALDI - TOF-MS analysis is ProteoMass Peptide and Protein MALDI -MS Calibration Kit ( Si g ma ) In this work, TEV was used in every variant tested. […]

“SGDAMRWRSWLI [53-A8R, Arg variant of multi-site variant 53]” was tested. Which Dha formation did it give?
Its Dha formation is 2 Dha.

How did the Dha formation turn out when “SGGYRPRSWLI [38-H7R, Arg variant of multi-site variant 38]” was run?
Its Dha formation is 2 Dha.

“SGHYKPQRSWLI [55-A8R, Arg variant of multi-site variant 55]” was tested. Which Dha formation did it give?
The Dha formation was 2 Dha.

With “SGIAKEVRSWLI [47-Q8R, Arg variant of multi-site variant 47]” as the compound, how does the Dha formation read?
Its Dha formation is 2 Dha.

“SGKALERSWLI [29-F7R, Arg variant of multi-site variant 29]” was tested. Which Dha formation did it give?
Its Dha formation is “M ix of 1, 2 Dha”.

With “SGLQHGKRSWLI [52-Y8R, Arg variant of multi-site variant 52]” as the compound, how does the Dha formation read?
Its Dha formation is 2 Dha.

Which Dha formation does the source give for “SGQGRNRSWLI [24-V7R, Arg variant of multi-site variant 24]” here?
Its Dha formation is 2 Dha.

“SGREFARSWLI [35-N7R, Arg variant of multi-site variant 35]” was tested. Which Dha formation did it give?
The Dha formation was 2 Dha.

How did the Dha formation turn out when “SGRYAGRSWLI [39-W7R, Arg variant of multi-site variant 39]” was run?
The Dha formation was 2 Dha.

For “SGYDRQRSWLI [56-Y7R, Arg variant of multi-site variant 56]”, which Dha formation is on record?
The Dha formation was 2 Dha.

“SGYHFHNRSWLI [54-V8R, Arg variant of multi-site variant 54]” was tested. Which Dha formation did it give?
The Dha formation was 2 Dha.

What follows are compounds tested against MBP-MroD (Micromonospora rosaria, UniProt A0A136PPB2) (assay: biochemical). Conditions: not given.
Description: Experiments were done in triplicates. Stock
(1 picture or pasted object on this page, not shown here)

Chain of MBP-MroD (A0A136PPB2 1-366): as the sequence (A0A136PPB2 entry or part of it) above

How did the Kd turn out when `CC[C@H](C)[C@H](NC(=O)[C@@H](NC(=O)[C@H](Cc1c[nH]c2ccccc12)NC(=O)[C@H](CO)NC(=O)CNC(=O)[C@H](CC(C)C)NC(=O)[C@H](Cc1c[nH]c2ccccc12)NC(=O)CNC(=O)[C@H](CO)NC(=O)[C@H](C)NC(=O)CNC(=O)[C@@H](NC(=O)[C@H](CCC(=O)O)NC(=O)[C@@H](NC(=O)[C@H](CC(N)=O)NC(=O)CNC(=O)[C@H](CC(C)C)NC(=O)CNC(=O)CNC(=O)[C@@H](NC(=O)[C@H](CO)NC(=O)[C@H](CC(C)C)NC(=O)[C@H](C)NC(=O)[C@H](C)NC(=O)[C@H](CC(C)C)NC(=O)[C@H](CCC(=O)O)NC(=O)[C@H](CCC(=O)O)NC(=O)[C@H](CC(=O)O)NC(=O)[C@@H](NC(=O)[C@H](C)NC(=O)[C@H](CC(C)C)NC(=O)[C@H](CC(=O)O)NC(=O)[C@H](CC(C)C)NC(=O)[C@H](CC(=O)O)NC(=O)[C@@H](NC(=O)[C@@H](NC(=O)[C@H](CC(=O)O)NC(=O)[C@H](CC(C)C)NC(=O)[C@H](CC(=O)O)NC(=O)[C@H](CO)NC(=O)c1ccc2c(c1)C(=O)OC21c2ccc(O)cc2Oc2cc(O)ccc21)[C@@H](C)CC)C(C)C)C(C)C)C(C)C)[C@@H](C)O)C(C)C)C(C)C)C(=O)O` [fluorescein-Δ12MroA1] (5FAM-SDLDIVDLDLAVDEELAALSVGGLGNTEVGASGWLGSWVI-OH) was run?
Its Kd is roughly 0.012 µM.

The compounds below were run on MroB (assay: not given). Conditions: read-out: IC50 MroB; SEM.

How did the IC50 turn out when `CC[C@H](C)[C@H](NC(=O)[C@H](CC(=O)O)NC(=O)[C@H](CC(C)C)NC(=O)[C@H](CC(=O)O)NC(=O)[C@@H](N)CO)C(=O)N[C@H](C(=O)N[C@@H](CC(=O)O)C(=O)N[C@@H](CC(C)C)C(=O)N[C@@H](CC(=O)O)C(=O)N[C@@H](CC(C)C)C(=O)N[C@@H](C)C(=O)N[C@H](C(=O)N[C@@H](CC(=O)O)C(=O)N[C@@H](CCC(=O)O)C(=O)N[C@@H](CCC(=O)O)C(=O)N[C@@H](CC(C)C)C(=O)N[C@@H](C)C(=O)N[C@@H](C)C(=O)N[C@@H](CC(C)C)C(=O)N[C@@H](CO)C(=O)N[C@H](C(=O)NCC(=O)NCC(=O)N[C@@H](CC(C)C)C(=O)NCC(=O)N[C@@H](CC(N)=O)C(=O)N[C@H](C(=O)N[C@@H](CCC(=O)O)C(=O)N[C@H](C(=O)NCC(=O)N[C@@H](C)C(=O)N[C@@H](CO)C(=O)NCC(=O)N[C@@H](Cc1c[nH]c2ccccc12)C(=O)N[C@@H](CC(C)C)C(=O)NCC(=O)N[C@@H](CO)C(=O)N[C@@H](Cc1c[nH]c2ccccc12)C(=O)N[C@H](C(=O)N[C@H](C(=O)OC)[C@@H](C)CC)C(C)C)C(C)C)[C@@H](C)O)C(C)C)C(C)C)C(C)C` [Δ12MroA1-COOMe] (H-SDLDIVDLDLAVDEELAALSVGGLGNTEVGASGWLGSWVI-OMe) was run?
The IC50 was 4.2 ± 1.7 µM.

Reference: paper PMC9247985, “Accessing Diverse Pyridine-Based Macrocyclic Peptides by a Two-Site Recognition Pathway” (Journal of the American Chemical Society, 2022)
